Measurements taken from the supplement of paper PMC10331698.
± gives the standard deviation of the averaged measurements.

Key:
[1] = compound: OCCCCC(F)(F)C(F)(F)C(F)(F)C(F)(F)F [4:4 Fluorotelomer alcohol]; assay: level (log10 ratio to DMSO vehicle control); higher = higher biomarker level / cell amount than vehicle control; details: in DMSO
Procedure: (§1)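 BioMAP Diversity Plus panel of 12 human primary cell co-culture systems (3C, 4H, LPS, SAg, BT, BF4T, BE3C, CASM3C, HDF3CGF, KF3CT, MyoF, Mphg). Compounds were added 1 h before stimulation and left for 24 h (MyoF 48 h; BT 72 h for soluble read-outs or 6 d for IgG). Biomarkers were read by ELISA, cytotoxicity by SRB, PBMC viability and proliferation by Alamar Blue. Each well value was divided by the mean of 8 DMSO control wells on the same plate and log10 transformed; duplicate blinded samples were tested at 4 concentrations.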

[2] = compound: C=CC(=O)OCCC(F)(F)C(F)(F)C(F)(F)C(F)(F)C(F)(F)C(F)(F)C(F)(F)C(F)(F)F [8:2 Fluorotelomer acrylate]; assay: as above; details: in DMSO
Procedure: as §1

Test System | level (log10) ([1]; 6700 nM) | level (log10) ([1]; 20000 nM) | level (log10) ([1]; 60000 nM) | level (log10) ([2]; 6700 nM) | level (log10) ([2]; 20000 nM) | level (log10) ([2]; 60000 nM)
BF4T:IL-1alpha | 0.0075 ± 0.013 | -0.0105 ± 0.0035 | -0.001 ± 0.017 | -0.0115 ± 0.013 | -0.0185 ± 0.00071 | 0.015 ± 0.037
BF4T:SRB | -0.0105 ± 0.0092 | -0.0085 ± 0.0064 | -0.002 ± 0.011 | -0.004 ± 0.0028 | -0.011 ± 0.013 | 0.0055 ± 0.0092
LPS:SRB | 0.02 ± 0.0057 | 0.022 ± 0.024 | 0.017 ± 0.033 | 0.0015 ± 0.0021 | -0.005 ± 0.0014 | 0.004 ± 0.0042
LPS:CD141/Thrombomodulin | 0.0135 ± 0.032 | 0.0215 ± 0.0078 | 0.007 ± 0.0085 | -0.044 ± 0.04 | -0.085 ± 0.016 | -0.0925 ± 0.03
SAg:CD38 | -0.001 ± 0.028 | -0.0075 ± 0.018 | -0.0165 ± 0.023 | -0.001 ± 0.0085 | -0.003 ± 0.0071 | -0.004 ± 0.013
LPS:CXCL8/IL-8 | 0.0295 ± 0.005 | 0.0205 ± 0.033 | 0.027 ± 0.041 | -0.0055 ± 0.0092 | -0.036 ± 0.04 | -0.0085 ± 0.018
BE3C:CD54/ICAM-1 | 0.0085 ± 0.015 | -0.0025 ± 0.023 | -0.0045 ± 0.0064 | -0.016 | 0 ± 0.0014 | 0.019 ± 0.04
3C:HLA-DR | -0.002 ± 0.042 | -0.0065 ± 0.026 | 0.006 ± 0.033 | 0.009 ± 0.0071 | 0.0055 ± 0.013 | 0.0175 ± 0.029
LPS:IL-1alpha | -0.01 ± 0.04 | -0.021 ± 0.028 | 0.014 ± 0.048 | 0.021 ± 0.013 | 0.0315 ± 0.052 | 0.0315 ± 0.0078
BE3C:IL-1alpha | 0.0255 ± 0.00071 | 0.0095 ± 0.011 | 0.0155 ± 0.021 | -0.007 ± 0.021 | -0.015 ± 0.0042 | 0.0165 ± 0.029
BF4T:CD106/VCAM-1 | -0.0145 ± 0.0064 | -0.0205 ± 0.018 | 0.0135 ± 0.043 | -0.038 ± 0.0071 | -0.06 ± 0.024 | -0.0235 ± 0.076
SAg:CCL2/MCP-1 | -0.009 ± 0.018 | -0.002 ± 0.0042 | -0.008 ± 0.027 | -0.0115 ± 0.00071 | -0.023 ± 0.013 | -0.0085 ± 0.036
4H:CD87/uPAR | -0.0385 ± 0.029 | -0.044 ± 0.021 | -0.0195 ± 0.013 | -0.045 ± 0.051 | -0.03 ± 0.011 | -0.064 ± 0.069
BE3C:CXCL9/MIG | 0.01 ± 0.0042 | -0.0025 ± 0.005 | 0.0095 ± 0.0092 | -0.0115 ± 0.0035 | -0.0075 ± 0.00071 | 0.0115 ± 0.021
BT:sIL-2 | -0.0015 ± 0.044 | -0.0135 ± 0.043 | -0.017 ± 0.092 | 0.051 ± 0.0042 | -0.061 ± 0.17 | -0.036 ± 0.13
BE3C:CXCL8/IL-8 | -0.013 ± 0.016 | -0.0155 ± 0.0021 | 0.029 ± 0.04 | -0.019 ± 0.027 | -0.013 ± 0.033 | 0.043 ± 0.021
BT:sIL-6 | 0.036 ± 0.033 | -0.0255 ± 0.005 | -0.069 ± 0.09 | 0.0525 ± 0.019 | 0.029 ± 0.0028 | 0.0215 ± 0.039
